In US5464796A, “7-isoindolinyl-quinolone-carboxylic acid derivatives” (Bayer Aktiengesellschaft, priority 1991, dated 1995):
Converted amounts (≈) assume the structure as drawn.

How the values were obtained:
Experiment in all cases: MIC by series dilution on Iso-Sensitest agar
E. coli = format: cell-based, Escherichia coli; conditions: 37° C., about 20 hours, 10^4 colony-forming particles per spot; for MIC: Escherichia coli, 20 h
Procedure: (§1) The minimum inhibitory concentrations (MIC) were determined by series dilution methods on Iso-Sensitest agar (Oxoid). A series of agar plates each containing active compound concentrations decreasing by twofold dilution each time were prepared for each test substance. The agar plates were inoculated with a Multipoint inoculator (Denley). Overnight cultures of the pathogens, which were first diluted so that each inoculum spot contained about 10^4 colony-forming particles, were used for the inoculation. The inoculated agar plates were incubated at 37° C. and the germ growth was read off after about 20 hours. The MIC value (μg/ml) indicates the lowest active compound concentration at which no growth was to be detected with the naked eye.
(§2) The MIC values of some of the compounds according to the invention are shown in the following table in comparison with 7-(4-amino-1,3-dihydro-isoindol-2-yl)-1-cyclopropyl-6,8-difluoro-1,4-dihydro-4-oxo-3-quinolinecarboxylic acid (EP 343,560, Example 2).

Klebsiella sp. = format: cell-based; conditions: strain 8085, 37° C., about 20 hours, 10^4 colony-forming particles per spot; for MIC: Klebsiella
Procedure: as §1, §2

Morganella morg. = format: cell-based; conditions: strain 932, 37° C., about 20 hours, 10^4 colony-forming particles per spot; for MIC: Morganella, 20 h
Procedure: as §1, §2

Providencia spp. = format: cell-based; conditions: strain 12012, 37° C., about 20 hours, 10^4 colony-forming particles per spot; for MIC: Providencia, 20 h
Procedure: as §1, §2

Staphyloccus aureus = format: cell-based, Staphylococcus aureus; conditions: 37° C., about 20 hours, 10^4 colony-forming particles per spot; for MIC: Staphylococcus aureus, 20 h
Procedure: as §1, §2

Enterocococus faecalis = format: cell-based, Enterococcus faecalis; conditions: 37° C., about 20 hours, 10^4 colony-forming particles per spot; for MIC: Enterococcus faecalis, 20 h
Procedure: as §1, §2

Pseudomonas aeruginasa = format: cell-based, Pseudomonas aeruginosa; conditions: strain Walter, 37° C., about 20 hours, 10^4 colony-forming particles per spot; for MIC: Pseudomonas, 20 h
Procedure: as §1, §2

Compound | MIC (E. coli; strain 455/7) [µg/mL] | MIC (E. coli; strain Neumann) [µg/mL] | MIC (Klebsiella sp.) [µg/mL] | MIC (Morganella morg.) [µg/mL] | MIC (Providencia spp.) [µg/mL] | MIC (Staphyloccus aureus; strain 133) [µg/mL] | MIC (Staphyloccus aureus; strain 1756) [µg/mL] | MIC (Enterocococus faecalis; strain 9790) [µg/mL] | MIC (Enterocococus faecalis; strain 27101) [µg/mL] | MIC (Pseudomonas aeruginasa) [µg/mL] | MIC values (E. coli; strain 455/7) | MIC values (E. coli; strain Neumann) | MIC values (Klebsiella sp.) | MIC values (Morganella morg.) | MIC values (Providencia spp.) | MIC values (Staphyloccus aureus; strain 133) | MIC values (Staphyloccus aureus; strain 1756) | MIC values (Enterocococus faecalis; strain 9790) | MIC values (Enterocococus faecalis; strain 27101) | MIC values (Pseudomonas aeruginasa) [µg/mL]
CNC1C=CCC2CN(c3c(F)cc4c(=O)c(C(=O)O)cn(C5CC5)c4c3Cl)CC21 (centres unmarked) [Example 3, 8-chloro-1-cyclopropyl-6-fluoro-1,4-dihydro-7-(4-methylamino-1,3,3a,4,7,7a-hexahydro-isoindol-2-yl)-4-oxo-3-quinolinecarboxylic acid] | 0.25 (≈ 0.579 µM) | 0.02 (≈ 0.0463 µM) | 0.03 (≈ 0.0695 µM) | 0.03 (≈ 0.0695 µM) | 0.03 (≈ 0.0695 µM) | 0.02 (≈ 0.0463 µM) | 0.02 (≈ 0.0463 µM) | 0.02 (≈ 0.0463 µM) | 0.02 (≈ 0.0463 µM) | 0.5 (≈ 1.16 µM) | – | – | – | – | – | – | – | – | – | –
CNC1C=CCC2CN(c3cc4c(cc3F)c(=O)c(C(=O)O)cn4C3CC3)CC21 (centres unmarked) [Example 2] | 2 (≈ 5.03 µM) | 0.03 (≈ 0.0755 µM) | – | – | 0.13 (≈ 0.327 µM) | 0.02 (≈ 0.0503 µM) | 0.02 (≈ 0.0503 µM) | 0.06 (≈ 0.151 µM) | 0.06 (≈ 0.151 µM) | 2 (≈ 5.03 µM) | – | – | – | – | – | – | – | – | – | –
CNC1C=CCC2CN(c3nc4c(cc3F)c(=O)c(C(=O)O)cn4C3CC3)CC21.Cl (centres unmarked) [Example 10, 1-cyclopropyl-6-fluoro-1,4-dihydro-7-(4-methylamino-1,3,3a,4,7,7a-hexahydroisoindol-2-yl)-4-oxo-1,8-naphthyridine-3-carboxylic acid hydrochloride] | 8 | 0.06 | 0.13 | 0.25 | 0.25 | 0.06 | 0.06 | 0.25 | 0.25 | 4 | – | – | – | – | – | – | – | – | – | –
CNC1C=CC(C)C2CN(c3cc4c(cc3F)c(=O)c(C(=O)O)cn4C3CC3)CC12 (centres unmarked) [Example 5] | 2 (≈ 4.86 µM) | 0.06 (≈ 0.146 µM) | 0.06 (≈ 0.146 µM) | 0.06 (≈ 0.146 µM) | 0.13 (≈ 0.316 µM) | 0.02 (≈ 0.0486 µM) | 0.02 (≈ 0.0486 µM) | 0.03 (≈ 0.0729 µM) | 0.03 (≈ 0.0729 µM) | 2 (≈ 4.86 µM) | – | – | – | – | – | – | – | – | – | –
CNC1C=CCC2CN(c3cc4c(c(C)c3F)c(=O)c(C(=O)O)cn4C3CC3)CC21 (centres unmarked) [Example 4] | 16 (≈ 38.9 µM) | 0.13 (≈ 0.316 µM) | 0.25 (≈ 0.608 µM) | 0.5 (≈ 1.22 µM) | 0.25 (≈ 0.608 µM) | 0.03 (≈ 0.0729 µM) | 0.03 (≈ 0.0729 µM) | 0.13 (≈ 0.316 µM) | 0.13 (≈ 0.316 µM) | 16 (≈ 38.9 µM) | – | – | – | – | – | – | – | – | – | –
Nc1cccc2c1CN(c1c(F)cc3c(=O)c(C(=O)O)cn(C4CC4)c3c1F)C2 [Ref, 7-(4-amino-1,3-dihydro-isoindol-2-yl)-1-cyclopropyl-6,8-difluoro-1,4-dihydro-4-oxo-3-quinolinecarboxylic acid, reference compound] | 128 (≈ 322 µM) | 0.5 (≈ 1.26 µM) | 4 (≈ 10.1 µM) | 1 (≈ 2.52 µM) | 1 (≈ 2.52 µM) | 0.03 (≈ 0.0755 µM) | 0.03 (≈ 0.0755 µM) | 1 (≈ 2.52 µM) | 0.5 (≈ 1.26 µM) | 128 (≈ 322 µM) | – | – | – | – | – | – | – | – | – | –
CNC1C=CCC2CN(c3nc4c(cc3F)c(=O)c(C(=O)O)cn4-c3ccc(F)cc3F)CC21 (centres unmarked) [11 B] | 16 (≈ 34 µM) | 0.25 (≈ 0.531 µM) | 0.5 (≈ 1.06 µM) | 0.5 (≈ 1.06 µM) | 0.5 (≈ 1.06 µM) | 0.06 (≈ 0.128 µM) | 0.06 (≈ 0.128 µM) | 0.25 (≈ 0.531 µM) | 0.25 (≈ 0.531 µM) | 8 (≈ 17 µM) | – | – | – | – | – | – | – | – | – | –
CNC1C=CC(C)C2CN(c3c(F)cc4c(=O)c(C(=O)O)cn(C5CC5)c4c3F)CC12 (centres unmarked) [Example 6] | 1 (≈ 2.33 µM) | 0.03 (≈ 0.0699 µM) | 0.06 (≈ 0.14 µM) | 0.06 (≈ 0.14 µM) | 0.13 (≈ 0.303 µM) | 0.02 (≈ 0.0466 µM) | 0.02 (≈ 0.0466 µM) | 0.06 (≈ 0.14 µM) | 0.06 (≈ 0.14 µM) | 2 (≈ 4.66 µM) | – | – | – | – | – | – | – | – | – | –
CNC1C=CCC2CN(c3c(F)cc4c(=O)c(C(=O)O)cn(C5CC5)c4c3F)CC21 (centres unmarked) [Example 1, 1-cyclopropyl-6,8-difluoro-1,4-dihydro-7-(4-methylamino-1,3,3a,4,7,7a-hexahydro-isoindol-2-yl)-4-oxo-3-quinolinecarboxylic acid] | 0.5 (≈ 1.2 µM) | 0.02 (≈ 0.0481 µM) | 0.06 (≈ 0.144 µM) | 0.06 (≈ 0.144 µM) | 0.06 (≈ 0.144 µM) | 0.02 (≈ 0.0481 µM) | 0.02 (≈ 0.0481 µM) | 0.03 (≈ 0.0722 µM) | 0.03 (≈ 0.0722 µM) | 1 (≈ 2.41 µM) | – | – | – | – | – | – | – | – | – | –
CNC1C=CCC2CN(c3c(F)cc4c(=O)c(C(=O)O)cn(C5CC5)c4c3Cl)CC21 (centres unmarked) [9 B] | – | – | – | – | – | – | – | – | – | – | 0,5 μg/ml | 0,02 μg/ml | 0,03 μg/ml | 0,06 μg/ml | 0,06 μg/ml | 0,03 μg/ml | 0,03 μg/ml | 0,02 μg/ml | 0,03 μg/ml | 1 (≈ 2.32 µM)
